Experimental data: PubChem BioAssay AID2060904 (Molecular Pharmacology Branch, DTP, NCI, 2025)
Blank lines part the entries; values can stand above or below the molecule they belong to.

Tested on: 349418-098-R-PDC complex spheroid viability
Assay: Anticancer human tumor 349418-098-R-PDC patient-derived lung adenocarcinoma cell line growth inhibition [RAS]
Details: for IC50: curve of first compound; for viability, T/C: stronger effect = lower value
Method in brief: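 Tumour cells grown as complex spheroids with HUVEC endothelial cells and mesenchymal stem cells, treated with RAS pathway inhibitor combinations. Each agent spans half-log steps from near clinical Cmax, or 10 microM where Cmax is unknown.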

[1] = second compound 0.000949 µM, first compound 0.0316 µM
[2] = second compound 0.000949 µM, first compound 0.1 µM
[3] = second compound 0.000949 µM, first compound 0.316 µM
[4] = second compound 0.000949 µM, first compound 1 µM
[5] = second compound 0.000949 µM, first compound 3.16 µM
[6] = second compound 0.000949 µM, first compound 10 µM
[7] = second compound 0.003 µM, first compound 0.0316 µM
[8] = second compound 0.003 µM, first compound 0.1 µM
[9] = second compound 0.003 µM, first compound 0.316 µM
[10] = second compound 0.003 µM, first compound 1 µM
[11] = second compound 0.003 µM, first compound 3.16 µM
[12] = second compound 0.003 µM, first compound 10 µM
[13] = second compound 0.00949 µM, first compound 0.0316 µM
[14] = second compound 0.00949 µM, first compound 0.1 µM
[15] = second compound 0.00949 µM, first compound 0.316 µM
[16] = second compound 0.00949 µM, first compound 1 µM
[17] = second compound 0.00949 µM, first compound 3.16 µM
[18] = second compound 0.00949 µM, first compound 10 µM
[19] = second compound 0.03 µM, first compound 0.0316 µM
[20] = second compound 0.03 µM, first compound 0.1 µM
[21] = second compound 0.03 µM, first compound 0.316 µM
[22] = second compound 0.03 µM, first compound 1 µM
[23] = second compound 0.03 µM, first compound 3.16 µM
[24] = second compound 0.03 µM, first compound 10 µM
[25] = second compound 0.0949 µM, first compound 0.0316 µM
[26] = second compound 0.0949 µM, first compound 0.1 µM
[27] = second compound 0.0949 µM, first compound 0.316 µM
[28] = second compound 0.0949 µM, first compound 1 µM
[29] = second compound 0.0949 µM, first compound 3.16 µM
[30] = second compound 0.0949 µM, first compound 10 µM
[31] = second compound 0.3 µM, first compound 0.0316 µM
[32] = second compound 0.3 µM, first compound 0.1 µM
[33] = second compound 0.3 µM, first compound 0.316 µM
[34] = second compound 0.3 µM, first compound 1 µM
[35] = second compound 0.3 µM, first compound 3.16 µM
[36] = second compound 0.3 µM, first compound 10 µM
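Further: spheroids exposed to compound for seven days before viability readout.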

IC50 (second compound 0.000949 µM): > 10 µM | IC50 (second compound 0.003 µM): > 10 µM | IC50 (second compound 0.00949 µM): > 10 µM | IC50 (second compound 0.03 µM): > 10 µM | IC50 (second compound 0.0949 µM): > 10 µM | IC50 (second compound 0.3 µM): > 10 µM
SMILES: Cc1nc(N2CCC3(CC2)COC(C)C3N)c(CO)nc1Sc1ccnc(N)c1Cl (stereo unspecified) + CCn1c(-c2cc(N3CCN(C)CC3)cnc2C(C)OC)c2c3cc(ccc31)-c1csc(n1)CC(NC(=O)C1CC1C)C(=O)N1CCCC(N1)C(=O)OCC(C)(C)C2
viability, T/C [1]: 90.4% | viability, T/C [2]: 99.3% | viability, T/C [3]: 88.4% | viability, T/C [4]: 102% | viability, T/C [5]: 97.2% | viability, T/C [6]: 95.7% | viability, T/C [7]: 114% | viability, T/C [8]: 103% | viability, T/C [9]: 104% | viability, T/C [10]: 103% | viability, T/C [11]: 100% | viability, T/C [12]: 95.8% | viability, T/C [13]: 111% | viability, T/C [14]: 89.2% | viability, T/C [15]: 97.1% | viability, T/C [16]: 112% | viability, T/C [17]: 114% | viability, T/C [18]: 115% | viability, T/C [19]: 96% | viability, T/C [20]: 106% | viability, T/C [21]: 105% | viability, T/C [22]: 99.1% | viability, T/C [23]: 106% | viability, T/C [24]: 90.6% | viability, T/C [25]: 104% | viability, T/C [26]: 114% | viability, T/C [27]: 79% | viability, T/C [28]: 92% | viability, T/C [29]: 102% | viability, T/C [30]: 104% | viability, T/C [31]: 109% | viability, T/C [32]: 106% | viability, T/C [33]: 100% | viability, T/C [34]: 107% | viability, T/C [35]: 115% | viability, T/C [36]: 115%

IC50 (second compound 0.000949 µM): > 10 µM | IC50 (second compound 0.003 µM): > 10 µM | IC50 (second compound 0.00949 µM): > 10 µM | IC50 (second compound 0.03 µM): > 10 µM | IC50 (second compound 0.0949 µM): > 10 µM | IC50 (second compound 0.3 µM): > 10 µM
SMILES: NC1c2ccccc2OC12CCN(c1cnc3c(N4CCCc5ncccc54)n[nH]c3n1)CC2 (stereo unspecified) + CCn1c(-c2cc(N3CCN(C)CC3)cnc2C(C)OC)c2c3cc(ccc31)-c1csc(n1)CC(NC(=O)C1CC1C)C(=O)N1CCCC(N1)C(=O)OCC(C)(C)C2
viability, T/C [1]: 91.7% | viability, T/C [2]: 98.8% | viability, T/C [3]: 111% | viability, T/C [4]: 90.2% | viability, T/C [5]: 86.5% | viability, T/C [6]: 76.8% | viability, T/C [7]: 98.1% | viability, T/C [8]: 120% | viability, T/C [9]: 105% | viability, T/C [10]: 102% | viability, T/C [11]: 95.6% | viability, T/C [12]: 76.8% | viability, T/C [13]: 116% | viability, T/C [14]: 102% | viability, T/C [15]: 97.1% | viability, T/C [16]: 98% | viability, T/C [17]: 90.7% | viability, T/C [18]: 73.9% | viability, T/C [19]: 113% | viability, T/C [20]: 102% | viability, T/C [21]: 111% | viability, T/C [22]: 107% | viability, T/C [23]: 102% | viability, T/C [24]: 72.3% | viability, T/C [25]: 114% | viability, T/C [26]: 88% | viability, T/C [27]: 110% | viability, T/C [28]: 107% | viability, T/C [29]: 116% | viability, T/C [30]: 78.5% | viability, T/C [31]: 103% | viability, T/C [32]: 105% | viability, T/C [33]: 113% | viability, T/C [34]: 93.9% | viability, T/C [35]: 104% | viability, T/C [36]: 64.8%

IC50 (second compound 0.000949 µM): < 0.00316 µM | IC50 (second compound 0.003 µM): < 0.00316 µM | IC50 (second compound 0.00949 µM): < 0.00316 µM | IC50 (second compound 0.03 µM): < 0.00316 µM | IC50 (second compound 0.0949 µM): < 0.00316 µM | IC50 (second compound 0.3 µM): < 0.00316 µM
SMILES: Nc1ccn(C2OC(CO)C(O)C2(F)F)c(=O)n1 (stereo unspecified) + CCn1c(-c2cc(N3CCN(C)CC3)cnc2C(C)OC)c2c3cc(ccc31)-c1csc(n1)CC(NC(=O)C1CC1C)C(=O)N1CCCC(N1)C(=O)OCC(C)(C)C2
viability, T/C (second compound 0.000949 µM, first compound 0.00316 µM): 33.4% | viability, T/C (second compound 0.000949 µM, first compound 0.01 µM): 6.66% | viability, T/C [1]: 5.75% | viability, T/C [2]: 4.77% | viability, T/C [3]: 5.22% | viability, T/C [4]: 4.87% | viability, T/C (second compound 0.003 µM, first compound 0.00316 µM): 21.9% | viability, T/C (second compound 0.003 µM, first compound 0.01 µM): 6.3% | viability, T/C [7]: 5.15% | viability, T/C [8]: 4.81% | viability, T/C [9]: 4.73% | viability, T/C [10]: 4.09% | viability, T/C (second compound 0.00949 µM, first compound 0.00316 µM): 24.4% | viability, T/C (second compound 0.00949 µM, first compound 0.01 µM): 6.44% | viability, T/C [13]: 5.46% | viability, T/C [14]: 4.39% | viability, T/C [15]: 5.27% | viability, T/C [16]: 4.67% | viability, T/C (second compound 0.03 µM, first compound 0.00316 µM): 29% | viability, T/C (second compound 0.03 µM, first compound 0.01 µM): 9.12% | viability, T/C [19]: 4.98% | viability, T/C [20]: 5.4% | viability, T/C [21]: 5.08% | viability, T/C [22]: 5.39% | viability, T/C (second compound 0.0949 µM, first compound 0.00316 µM): 43.2% | viability, T/C (second compound 0.0949 µM, first compound 0.01 µM): 10.6% | viability, T/C [25]: 4.96% | viability, T/C [26]: 5.29% | viability, T/C [27]: 5.26% | viability, T/C [28]: 4.88% | viability, T/C (second compound 0.3 µM, first compound 0.00316 µM): 46.8% | viability, T/C (second compound 0.3 µM, first compound 0.01 µM): 16.9% | viability, T/C [31]: 6.97% | viability, T/C [32]: 5.92% | viability, T/C [33]: 5.96% | viability, T/C [34]: 5.73%
